Several values for one entry are separate records, joined by “and”; a condition that tells them apart may be missing. Equal values may be shown once.
Target: SARS-CoV-2 Spike protein (Severe acute respiratory syndrome coronavirus 2, UniProt P0DTC2)
Test: Ternary binding of SARS-CoV-2 Spike protein (293T cells expressing Spike-GFP, IgG-AF647, flow cytometry)
Assay type: cell-based
Details: 293T cells expressing Spike-GFP; IgG-AF647 10 μg/ml; repeat values/batches listed separately; read-out: SARS-CoV-2 Ternary binding EC50
Method: 293T cells stably expressing SARS-CoV-2 Spike-GFP protein on their surface were incubated with a concentration range of compound for 30 minutes at 37° C.-5% CO2 in Roswell Park Memorial Institute Medium (RPMI)-5% low IgG serum with 10 μg/ml IgG-Alexa Fluor® 647 (AF647). The cells were washed twice using the same medium, resuspended in phosphate-buffered saline (PBS)-1% bovine serum albumin (BSA), and acquired on Attune™ NxT Flow Cytometer. In some embodiments, mean fluorescence intensity of AF647 as well as […] AF647 positive in GFP positive gate are reported as readouts in this assay.

CC[C@H](C)[C@H](NC(=O)[C@H](CC(C)C)NC(=O)[C@H](CC(=O)O)NC(=O)[C@H](CO)NC(=O)[C@@H](NC(=O)[C@H](CCCNC(=N)N)NC(=O)[C@H](CCSC)NC(=O)[C@H](CO)NC(=O)[C@H](C)NC(=O)[C@H](CCC(=O)O)NC(=O)[C@H](C)NC(=O)[C@H](Cc1c[nH]cn1)NC(=O)CNC(=O)[C@H](CC(C)C)NC(=O)[C@H](CCC(=O)O)NC(=O)[C@H](CC(=O)O)NC(=O)[C@H](CC(C)C)NC(=O)[C@H](CC(C)C)NC(=O)[C@H](CCCNC(=N)N)NC(=O)[C@H](CCSC)NC(=O)[C@@H](NC(=O)[C@H](CCC(=O)O)NC(=O)[C@H](Cc1ccc(O)cc1)NC(=O)[C@@H](NC(=O)[C@H](CCCCN)NC(=O)[C@H](CCC(N)=O)NC(=O)[C@H](CC(C)C)NC(=O)[C@@H](NC(=O)[C@H](Cc1c[nH]c2ccccc12)NC(=O)[C@H](CCC(=O)O)NC(=O)[C@H](CCCCN)NC(=O)[C@H](CC(=O)O)NC(C)=O)[C@@H](C)CC)[C@@H](C)CC)[C@@H](C)CC)C(C)C)C(=O)N[C@@H](Cc1ccc(O)cc1)C(=O)N[C@@H](CCC(=O)O)C(=O)N[C@@H](Cc1ccccc1)C(=O)N[C@@H](CCSC)C(=O)N[C@@H](CCCCN)C(=O)N[C@@H](CCCCN)C(=O)NCC(=O)NCCOCCNC(=O)[C@@H]1CSCC(=O)N[C@@H](C)C(=O)N[C@@H](CO)C(=O)N[C@@H](Cc2ccc(O)cc2)C(=O)N[C@@H](Cc2c[nH]cn2)C(=O)N[C@@H](CC(C)C)C(=O)NCC(=O)N[C@@H](CCC(=O)O)C(=O)N[C@@H](CC(C)C)C(=O)N[C@@H](C(C)C)C(=O)N[C@@H](Cc2c[nH]c3ccccc23)C(=O)N2Cc3ccccc3C[C@H]2C(=O)NC(C)(C)C(=O)N1 [Compound 159]
EC50: 3 nM and 2.8 nM

CC[C@H](C)[C@H](NC(=O)[C@H](CC(C)C)NC(=O)[C@H](CC(=O)O)NC(=O)[C@H](CO)NC(=O)[C@@H](NC(=O)[C@H](CCCNC(=N)N)NC(=O)[C@H](CCSC)NC(=O)[C@H](CO)NC(=O)[C@H](C)NC(=O)[C@H](CCC(=O)O)NC(=O)[C@H](C)NC(=O)[C@H](Cc1c[nH]cn1)NC(=O)CNC(=O)[C@H](CC(C)C)NC(=O)[C@H](CCC(=O)O)NC(=O)[C@H](CC(=O)O)NC(=O)[C@H](CC(C)C)NC(=O)[C@H](CC(C)C)NC(=O)[C@H](CCCNC(=N)N)NC(=O)[C@H](CCSC)NC(=O)[C@@H](NC(=O)[C@H](CCC(=O)O)NC(=O)[C@H](Cc1ccc(O)cc1)NC(=O)[C@@H](NC(=O)[C@H](CCCCN)NC(=O)[C@H](CCC(N)=O)NC(=O)[C@H](CC(C)C)NC(=O)[C@@H](NC(=O)[C@H](Cc1c[nH]c2ccccc12)NC(=O)[C@H](CCC(=O)O)NC(=O)[C@H](CCCCN)NC(=O)[C@H](CC(=O)O)NC(C)=O)[C@@H](C)CC)[C@@H](C)CC)[C@@H](C)CC)C(C)C)C(=O)N[C@@H](Cc1ccc(O)cc1)C(=O)N[C@@H](CCC(=O)O)C(=O)N[C@@H](Cc1ccccc1)C(=O)N[C@@H](CCSC)C(=O)N[C@@H](CCCCN)C(=O)N[C@@H](CCCCN)C(=O)NCC(=O)NCCOCCOCCOCCOCCOCCOCCOCCOCCC(=O)NCCOCCOCCOCCOCCOCCOCCOCCOCCNC(=O)[C@@H]1CSCC(=O)N[C@@H](C)C(=O)N[C@@H](CO)C(=O)N[C@@H](Cc2ccc(O)cc2)C(=O)N[C@@H](Cc2c[nH]cn2)C(=O)N[C@@H](CC(C)C)C(=O)NCC(=O)N[C@@H](CCC(=O)O)C(=O)N[C@@H](CC(C)C)C(=O)N[C@@H](C(C)C)C(=O)N[C@@H](Cc2c[nH]c3ccccc23)C(=O)N2Cc3ccccc3C[C@H]2C(=O)NC(C)(C)C(=O)N1 [Compound 160]
EC50: 1.4 nM and 2.2 nM

— patent US20260306644A1, “ANTIBODY RECRUITING MOLECULES FOR THE TREATMENT OF CORONAVIRUS DISEASE-19” (priority 2023, published 2026)
